Experimental data reported in US11505558B1, “Antiviral heterocyclic compounds” (Enanta Pharmaceuticals, Inc., priority 2019, dated 2022).

Assays:
[1] = test system: HRSV; conditions: prophylactic use, high risk infants; cited from earlier work
[2] = test system: genotype A, "Long" strain RSV; assay: RSV-A assay (CPE, ATPlite readout in Hep-2 cells); format: cell-based; conditions: human respiratory syncytial virus, HEp-2, Hep-2 cells, genotype A "Long" strain RSV, MOI 0.1; read-out: Human RSV-A (“Long” strain) EC50
Procedure, shortened: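 Hep-2 cells (8,000/well) received 2-fold serial compound dilutions in duplicate and RSV Long strain at MOI 0.1. After 5 days' incubation, cell health was read as ATP by ATPlite luminescence, with virus-only and uninfected controls defining max and minimum CPE; EC50 reported.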

[3] = test system: recombinant HMPV CAN97-83 (MPV-GFP1); assay: HMPV antiviral assay (MPV-GFP1 eGFP fluorescence in Vero E6 cells); format: cell-based; conditions: human metapneumovirus, Vero C1008, 120 h, read-out: HMPV EC50
Procedure, shortened: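 Vero E6 cells in serum-free OptiMEM with 0.5 μg/mL TPCK-trypsin infected with eGFP-expressing HMPV CAN97-83 (MPV-GFP1) at MOI 0.05. 8-point […] ½-step dilutions from 8 or 2 μM, 0.5% DMSO, 5 days at 32 °C. eGFP fluorescence normalized to infected untreated wells; EC50 from four-parameter logistic fit.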

Row | Compound | effective in reducing hospitalizations [1] | EC50 [2] | EC50 [3]
1 | Palivizumab | 60% |  | 
2 | CCCNC(=O)COc1cc(C(=O)NC[C@](O)(c2cc3c(c(-c4ccc(F)cc4)n2)OC[C@]3(C)C(N)=O)C(F)(F)F)cc2cccnc12 [Example 374] |  | < 200 nM | < 500 nM
3 | COc1cc(C(=O)NC[C@](O)(c2cc3c(c(-c4ccc(F)cc4)n2)OC[C@]3(C)C(N)=O)C(F)(F)F)cc2cc(C)cnc12 [Example 255] |  | < 200 nM | < 500 nM
4 | C[C@]1(C(=O)NCCCNC(N)=O)COc2c1cc([C@@](O)(CNC(=O)c1cc(OC3CC3)c3ncccc3c1)C(F)(F)F)nc2-c1ccc(F)cc1 [Example 479] |  | < 200 nM | > 500 nM
5 | COc1cc(C(=O)NC[C@](O)(c2cc3c(c(-c4ccc(F)c(Cl)c4)n2)OC[C@]3(C)C(N)=O)C(F)(F)F)cc2cc(C)c(C)nc12 [Example 534] |  | < 200 nM | < 500 nM
6 | COc1cc(C(=O)NC[C@](O)(c2cc3c(c(-c4ccc(F)c(Cl)c4)n2)OC[C@]3(C)C(N)=O)C2CC2)cc2cc(Cl)cnc12 [Example 529] |  | < 200 nM | < 500 nM
7 | Cc1cnc2c(NC(=O)C3(C)CC3)cc(C(=O)NC[C@](O)(c3cc4c(c(-c5ccc(F)cc5)n3)OC[C@]4(C)C(N)=O)C(F)(F)F)cc2c1 [Example 552] |  | < 200 nM | < 500 nM
8 | COc1cc(C(=O)NC[C@](O)(c2cc3c(c(-c4ccc(F)cc4)n2)OC[C@]3(C)C(N)=O)C2CC2)cc2cc(C3CC3)cnc12 [Example 522] |  | < 200 nM | < 500 nM
9 | Cc1nc2ccc(C(=O)NC[C@](O)(c3cc4c(c(-c5ccc(F)cc5)n3)OC[C@]4(C)C(N)=O)C(F)(F)F)cc2s1 [Example 430] |  | < 200 nM | < 500 nM
10 | C[C@]1(C(N)=O)COc2c1cc([C@@](O)(CNC(=O)c1cc(Oc3cnccn3)c3ncccc3c1)C(F)(F)F)nc2-c1ccc(F)cc1 [Example 387] |  | < 200 nM | > 500 nM
11 | CCc1cnc2c(OC)cc(C(=O)NC[C@](O)(c3cc4c(c(-c5ccc(F)cc5)n3)OC[C@]4(C)C(N)=O)C(F)(F)F)cc2c1 [Example 262] |  | < 200 nM | > 500 nM
12 | CNC(=O)CNC(=O)[C@@]1(C)COc2c1cc([C@@](O)(CNC(=O)c1cc(OC3CC3)c3ncccc3c1)C(F)(F)F)nc2-c1ccc(F)cc1 [Example 473] |  | < 200 nM | > 500 nM
13 | COc1cc(C(=O)NC[C@](O)(c2cc3c(c(-c4ccc(F)c(Cl)c4)n2)OC[C@]3(C)C(N)=O)C(F)(F)F)cc2cc(C3CC3)cnc12 [Example 532] |  | < 200 nM | < 500 nM
14 | C[C@]1(C(N)=O)COc2c1cc([C@@](O)(CNC(=O)c1cc(Nc3ccncc3)c3ncccc3c1)C(F)(F)F)nc2-c1ccc(F)cc1 [Example 336] |  | < 200 nM | > 500 nM
15 | C[C@]1(C(=O)NCCC(N)=O)COc2c1cc([C@@](O)(CNC(=O)c1cc(OC3CC3)c3ncccc3c1)C(F)(F)F)nc2-c1ccc(F)cc1 [Example 477] |  | < 200 nM | > 500 nM
16 | Cc1cncc(-c2cc(C(=O)NC[C@](O)(c3cc4c(c(-c5ccc(F)cc5)n3)OC[C@]4(C)C(N)=O)C(F)(F)F)ccc2OC2CC2)c1 [Example 103] |  | < 200 nM | > 500 nM
17 | COc1cc(C(=O)NC[C@](O)(c2cc3c(c(-c4ccc(F)cc4)n2)OC[C@]3(C)CC#N)C(F)(F)F)cc2cccnc12 [Example 74] |  | < 200 nM | < 500 nM
18 | C[C@]1(C(N)=O)COc2c1cc([C@@](O)(CNC(=O)c1cc(OCc3ncco3)c3ncccc3c1)C(F)(F)F)nc2-c1ccc(F)cc1 [Example 390] |  | < 200 nM | > 500 nM
19 | COc1cc(C(=O)NC[C@](O)(c2cc3c(c(-c4ccc(F)cc4)n2)OC[C@]3(C)C(=O)NO)C(F)(F)F)cc2cccnc12 [Example 53] |  | < 200 nM | > 500 nM

Row | Compound | effective in reducing hospitalizations [1] | EC50 [2] | EC50 [3]
20 | COc1cc(C(=O)NC[C@](O)(c2cc3c(c(-c4ccc(F)cc4)n2)OC[C@]3(C)CNC2(C)CC2)C(F)(F)F)cc2cccnc12 [Example 44] |  | < 200 nM | > 500 nM
21 | COc1cc(C(=O)NC[C@](O)(c2cc3c(c(-c4ccc(F)cc4)n2)OC[C@]3(C)C(N)=O)C(F)(F)F)cc2sc(N)nc12 [Example 431] |  | < 200 nM | < 500 nM
22 | C[C@]1(C(N)=O)COc2c1cc([C@@](O)(CNC(=O)c1ccc(OC3CC3)c(-c3ncccn3)c1)C(F)(F)F)nc2-c1ccc(F)cc1 [Example 127] |  | < 200 nM | > 500 nM
23 | C[C@]1(C(=O)NCCCO)COc2c1cc([C@@](O)(CNC(=O)c1cc(OC3CC3)c3ncccc3c1)C(F)(F)F)nc2-c1ccc(F)cc1 [Example 485] |  | < 200 nM | < 500 nM
24 | Cc1cnc2c(Nc3cncnc3)cc(C(=O)NC[C@](O)(c3cc4c(c(-c5ccc(F)cc5)n3)OC[C@]4(C)C(N)=O)C(F)(F)F)cc2c1 [Example 548] |  | < 200 nM | > 500 nM
25 | Cc1cnc2c(NC(=O)c3coc(C)n3)cc(C(=O)NC[C@](O)(c3cc4c(c(-c5ccc(F)cc5)n3)OC[C@]4(C)C(N)=O)C(F)(F)F)cc2c1 [Example 418] |  | < 200 nM | < 500 nM
26 | Cc1nc2cc(C(=O)NC[C@](O)(c3cc4c(c(-c5ccc(F)cc5)n3)OC[C@]4(C)C(N)=O)C(F)(F)F)ccc2[nH]1 [Example 600] |  | < 200 nM | > 500 nM
27 | CN(C)C(=O)COc1cc(C(=O)NC[C@](O)(c2cc3c(c(-c4ccc(F)cc4)n2)OC[C@]3(C)C(N)=O)C(F)(F)F)cc2cccnc12 [Example 373] |  | < 200 nM | > 500 nM
28 | C[C@]1(C(N)=O)COc2c1cc([C@@](O)(CNC(=O)c1cc(OC3CC3)c3ncccc3c1)C1CC1)nc2-c1ccc(F)cc1 [Example 280] |  | < 200 nM | < 500 nM
29 | C[C@]1(C(N)=O)COc2c1cc([C@@](O)(CNC(=O)c1cc(OC3CC3)c3ncccc3c1)C(F)(F)F)nc2-c1ccccc1 [Example 228] |  | < 200 nM | > 500 nM
30 | C[C@]1(C(N)=O)COc2c1cc([C@@](O)(CNC(=O)c1ccc(OC3CC3)c(C3CC3)c1)C(F)(F)F)nc2-c1ccc(F)cc1 [Example 123] |  | < 200 nM | > 500 nM
31 | Cc1ccc2cc(C(=O)NC[C@](O)(c3cc4c(c(-c5ccc(F)cc5)n3)OC[C@]4(C)C(N)=O)C(F)(F)F)cc(NC(=O)C3CC3)c2n1 [Example 626] |  | < 200 nM | > 500 nM
32 | COc1cc(C(=O)NC[C@](O)(c2cc3c(c(-c4ccc(F)cc4)n2)OC[C@]3(C)C(=O)NCC(C)(C)O)C(F)(F)F)cc2cn(C)nc12 [Example 635] |  | < 200 nM | < 500 nM
33 | Cc1cnc2c(OCC(N)=O)cc(C(=O)NC[C@](O)(c3cc4c(c(-c5ccc(F)cc5)n3)OC[C@]4(C)C(N)=O)C(F)(F)F)cc2c1 [Example 366] |  | < 200 nM | > 500 nM
34 | COc1cc(C(=O)NC[C@](O)(c2cc3c(c(-c4ccc(F)cc4)n2)OC[C@]3(C)C(=O)NC2(C#N)CC2)C(F)(F)F)cc2cccnc12 [Example 451] |  | < 200 nM | < 500 nM
35 | Cn1cc2cc(C(=O)NC[C@](O)(c3cc4c(c(-c5ccc(F)cc5)n3)OC[C@]4(C)C(=O)NCC(C)(C)O)C(F)(F)F)ccc2n1 [Example 640] |  | < 200 nM | > 500 nM
36 | Cc1ncc(-c2cc(C(=O)NC[C@](O)(c3cc4c(c(-c5ccc(F)cc5)n3)OC[C@]4(C)C(N)=O)C(F)(F)F)ccc2OC2CC2)s1 [Example 126] |  | < 200 nM | > 500 nM
37 | CC(C)(CO)NC(=O)[C@@]1(C)COc2c1cc([C@@](O)(CNC(=O)c1cc(OC3CC3)c3ncccc3c1)C(F)(F)F)nc2-c1ccc(F)cc1 [Example 482] |  | < 200 nM | > 500 nM
